# Laboratory results from US20160310472A1, “PHARMACEUTICAL COMPOSITIONS COMPRISING SULBACTAM AND IMIPENEM” (priority 2013, published 2016).
# What was measured:
# [1] = test system: A. baumannii S-12 strain; test: Time-kill study, viable bacterial count in broth, A. baumannii S-12; type: cell-based, Acinetobacter baumannii
# Description: (§1) The antibacterial activity of compositions according to the invention against various bacterial strains was investigated. In a typical study, freshly grown cultures were diluted to required cell density (initial starting inoculum) in Brain Heart Infusion broth medium (BD, USA). The antibacterial agents (either alone or in combination) in required concentrations were added into the culture containing medium. The samples were incubated under shaking conditions (120 rpm) at 37° C. Enumeration of viable bacterial count was undertaken, every 2 hours, by diluting in normal saline and plating on to Tryptic Soya Agar plates (BD, USA). The plates were incubated for 24 hours to arrive at a viable bacterial count.
# [2] = test system: A. baumannii S-224 strain; test: Time-kill study, viable bacterial count in broth, A. baumannii S-224; type: cell-based, Acinetobacter baumannii
# Description: as §1
# A. baumannii S-224 strain expresses both Class D beta-lactamases (OXA-51 and OXA-23 like) and Class B metalo-beta-lactamases (NDM).
# [3] = test system: A. baumannii S-5 strain; test: Mouse Systemic Infection Model; conditions: agent alone; Swiss albino mice, subcutaneous TID from 1 hour post infection, survival over 10 days
structure (smiles),measurement,setting,value
CC1(C)[C@H](C(=O)O)N2C(=O)C[C@H]2S1(=O)=O [Sulbactam],Decrease in number of colony forming units (in words),[1]; S-12 strain,not observed
same,Bacterial count,"[1]; Sulbactam 16 mcg/ml, 0 hour",6.87 log CFU/ml
same,Bacterial count,"[1]; Sulbactam 16 mcg/ml, 2 hours",5.84 log CFU/ml
same,Bacterial count,"[1]; Sulbactam 16 mcg/ml, 4 hours",5.27 log CFU/ml
same,Bacterial count,"[1]; Sulbactam 16 mcg/ml, 6 hours",6.23 log CFU/ml
same,Bacterial count,"[2]; Sulbactam 16 mcg/ml, 0 hour",6.74 log CFU/ml
same,Bacterial count,"[2]; Sulbactam 16 mcg/ml, 2 hours",6.65 log CFU/ml
same,Bacterial count,"[2]; Sulbactam 16 mcg/ml, 4 hours",7.17 log CFU/ml
same,Bacterial count,"[2]; Sulbactam 16 mcg/ml, 6 hours",7.27 log CFU/ml
C[C@@H](O)[C@H]1C(=O)N2C(C(=O)O)=C(SCCN=CN)C[C@H]12 [Imipenem],ED50,[3],>50 mg/kg body weight
same,ED90,[3],>50 mg/kg body weight
same,Bacterial count,"[1]; Imipenem 8 mcg/ml, 0 hour",6.87 log CFU/ml
same,Bacterial count,"[1]; Imipenem 8 mcg/ml, 2 hours",7.69 log CFU/ml
same,Bacterial count,"[1]; Imipenem 8 mcg/ml, 4 hours",8.27 log CFU/ml
same,Bacterial count,"[1]; Imipenem 8 mcg/ml, 6 hours",8.27 log CFU/ml
same,Bacterial count,"[1]; Imipenem 16 mcg/ml, 0 hour",6.87 log CFU/ml
same,Bacterial count,"[1]; Imipenem 16 mcg/ml, 2 hours",7.69 log CFU/ml
same,Bacterial count,"[1]; Imipenem 16 mcg/ml, 4 hours",8.11 log CFU/ml
same,Bacterial count,"[1]; Imipenem 16 mcg/ml, 6 hours",7.84 log CFU/ml
same,Bacterial count,"[2]; Imipenem 8 mcg/ml, 0 hour",6.74 log CFU/ml
same,Bacterial count,"[2]; Imipenem 8 mcg/ml, 2 hours",7.20 log CFU/ml
same,Bacterial count,"[2]; Imipenem 8 mcg/ml, 4 hours",8.11 log CFU/ml
same,Bacterial count,"[2]; Imipenem 8 mcg/ml, 6 hours",8.04 log CFU/ml
same,Bacterial count,"[2]; Imipenem 16 mcg/ml, 0 hour",6.74 log CFU/ml
same,Bacterial count,"[2]; Imipenem 16 mcg/ml, 2 hours",7.17 log CFU/ml
same,Bacterial count,"[2]; Imipenem 16 mcg/ml, 4 hours",8.04 log CFU/ml
same,Bacterial count,"[2]; Imipenem 16 mcg/ml, 6 hours",7.90 log CFU/ml
